Reference: PubChem BioAssay (NCI)
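Five compound concentrations were applied to cells in 96-well plates for 48 hours; endpoints were derived by simple linear interpolation of the resulting dose-response curve. TGI denotes the concentration required for complete inhibition of growth.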

Tests used:
Experiment in all cases: inhibition of tumour cell growth, NCI panel, 48 h
786-0 renal = tested on: 786-0 renal
HCT-15 colon = tested on: HCT-15 colon
SN12C renal = tested on: SN12C renal
SK-MEL-2 melanoma = tested on: SK-MEL-2 melanoma
A498 renal = tested on: A498 renal
PC-3 prostate = tested on: PC-3 prostate
DU-145 prostate = tested on: DU-145 prostate
HCT-116 colon = tested on: HCT-116 colon
NCI-H226 lung = tested on: NCI-H226 lung
MDA-N = tested on: MDA-N
HOP-92 NSCLC = tested on: HOP-92 NSCLC
HL-60(TB) leukemia = tested on: HL-60(TB) leukemia
SK-MEL-28 melanoma = tested on: SK-MEL-28 melanoma
HT29 colon = tested on: HT29 colon
NCI-H23 lung = tested on: NCI-H23 lung

Row | Structure (SMILES) | TGI (786-0 renal) [µM] | TGI (HCT-15 colon) [µM] | TGI (SN12C renal) [µM] | TGI (SK-MEL-2 melanoma) [µM] | TGI (A498 renal) [µM] | TGI (PC-3 prostate) [µM] | TGI (DU-145 prostate) [µM] | TGI (HCT-116 colon) [µM] | TGI (NCI-H226 lung) [µM] | TGI (MDA-N) [µM] | TGI (HOP-92 NSCLC) [µM] | TGI (HL-60(TB) leukemia) [µM] | TGI (SK-MEL-28 melanoma) [µM] | TGI (HT29 colon) [µM] | TGI (NCI-H23 lung) [µM]
1 | COc1cc(/C=C2\C(=O)N(c3ccc(NC(C)=O)cc3)C(c3ccccc3)S2(=O)=O)cc(OC)c1OC (stereo not given) | > 100 | > 100 | > 100 | > 100 | > 100 | > 100 | > 100 | > 100 | > 100 | > 100 | > 100 | 79.1 | > 100 | > 100 | > 100
2 | COC(=O)/C=C/c1ccc2c(c1)[C@H](C(=O)OC)[C@@H](c1ccc(O)cc1)O2 | > 100 | 47.3 | > 100 | 31.2 | > 100 | > 100 | > 100 | > 100 | > 100 | 95.7 | > 100 | 67.6 | > 100 | > 100 | > 100
3 | CNC(=O)OCc1nc(N=[N+]=[N-])n(C)c1COC(=O)NC | > 10 | > 100 | > 100 | 80.6 | > 100 | > 100 | > 100 | > 100 | > 100 | > 100 | 86.7 | 48.9 | > 100 | > 100 | > 100
4 | Cc1c(-c2ccccc2)c(C#N)c2nnn(C)c(=O)n12 | > 100 | > 100 | > 100 | > 100 | > 100 | > 100 | > 100 | > 100 | > 100 | > 100 | > 100 | > 100 | > 100 | > 100 | > 100
5 | COc1cc(OC)c2nc(C)c3c(c2c1)OCC3 | > 100 | > 100 | > 100 | > 100 | > 100 | > 100 | > 100 | > 100 | > 100 | > 100 | > 100 | > 100 | > 100 | > 100 | > 100
6 | O=C(/N=C1/OC(CN2CCOCC2)CN1C(=O)Nc1ccccc1)Nc1ccccc1 (stereo not given) | > 100 | > 100 | > 100 | > 100 | > 100 | > 100 | > 100 | > 100 | > 100 | > 100 | > 100 | > 100 | > 100 | > 100 | > 100
7 | Cc1ccc(/C=C2\CCCCCC2=O)cc1 | > 100 | > 100 | > 100 | > 100 | > 100 | > 100 | > 100 | > 100 | > 100 | > 100 | > 100 | > 100 | > 100 | > 100 | > 100
8 | N/N=C(/CC(O)(C(F)(F)F)C(F)(F)F)c1ccccc1 | > 10 | > 10 | > 10 | > 10 | > 10 | > 10 | > 10 | > 10 | > 10 | > 10 | > 10 | > 10 | > 10 | > 10 | > 10
9 | C=C(C)CCN(C(=O)OC(C)(C)C)c1cc(C(C)C)co1 | > 100 | > 100 | > 100 | > 100 | > 100 | 99.6 | > 100 | > 100 | > 100 | > 100 | 61 | 43.8 | > 100 | > 100 | > 100
10 | COc1cc(/C=C2\CC(C)C/C(=C\c3ccc(O)c(OC)c3)C2=O)ccc1O (stereo not given) | > 100 | 4.93 | 8.35 | 17.8 | 9.61 | 20.5 | 12.7 | 3.4 | 17.6 | 7.37 | 10.4 | > 30.6 | 8.95 | 20.1 | 11
11 | COc1ccc(C(c2cc(OC)c(OC)c(OC)c2)N2C(=O)CCC2C(=O)O)cc1 (stereo not given) | > 100 | > 100 | > 100 | > 100 | > 100 | > 100 | > 100 | > 100 | > 100 | 56.9 | > 100 | > 100 | > 100 | > 100 | > 100
12 | COC(=O)C1Cc2c([nH]c3ccccc23)-c2[nH]c3ccccc3c2CC(NC(C)=O)C(=O)NCC(=O)NCC(=O)N1 (stereo not given) | > 100 | > 100 | > 100 | > 100 | > 100 | > 100 | > 100 | > 100 | > 100 | > 100 | > 100 | > 100 | > 100 | > 100 | > 100
13 | CC1=NN(C(=O)CC(=O)Nc2ccc(Cl)cc2)C(=O)C1N=Nc1ccc(S(=O)(=O)c2ccc(N=NC3C(=O)N(C(=O)CC(=O)Nc4ccc(Cl)cc4)N=C3C)cc2)cc1 (stereo not given) | > 100 | > 100 | > 100 | > 100 | > 100 | > 100 | > 100 | > 100 | > 100 | > 100 | > 100 | > 100 | > 100 | > 100 | > 100
14 | COC(=O)/C=C/C(=O)Nc1cc(Cl)c(Cl)cc1CC(=O)N(C)[C@H]1CCCC[C@@H]1N1CCCC1 | 22.1 | 28 | 25.1 | 22 | 28.9 | 17.9 | 19.9 | 23.3 | 31.7 | 25.2 | 18.7 | 5.33 | 33.7 | 41 | 30.4
